{"source": "patent US20080038289A1", "about": "“Antitumor Agent” (priority 2004, published 2008)", "key": {"[1]": {"experiment": "Toxicity on oral administration to mice", "format": "in vivo", "settings": "orally administered, 25 mg/mouse/day"}, "[2]": {"tested_on": "IMC carcinoma tumor cells", "experiment": "IMC solid tumor growth in CDF1 mice, SBS orally (Example 10)", "format": "in vivo", "settings": "about 15.6 mg/kg/day orally in peanut oil with 10% ethanol; three weeks after transplantation of IMC", "source_text": "As ICR mice (Japan SLC, Inc.), 5-week old female mice were purchased, and the animals were used at 6 weeks old. Sarcoma-180 (hereinafter, S-180) tumor cells were transplanted into an abdominal cavity of the ICR mice to give an ascites, and the ascites was passaged by transplanting into other mice every 7 days. An ascites on day 7 after passage was collected, washed with a phosphate buffered saline by centrifugation, and suspended in the same buffer. The number of cells was counted, and the suspension was adjusted to have a density of 5×10^7 cells/mL. Into ICR mice at right abdominal part was subcutaneously transplanted 0.1 mL of the cell suspension, and the size of a solid tumor after 7 days was measured. […] The size of the tumor was measured after four weeks from transplantation of S-180. In addition, as the size of the tumor, a length and a width were measured, to obtain the volume according to the following equation, followed by comparison. […]\nThe tumor-suppressing activity was calculated according to the following equation. […]\nAs CDF1 mice (Japan SLC, Inc.), 6-week old female mice were purchased, and the animals were used at 7 weeks olds. […] The number of cells was counted. […] Seven days after transplantation, take of a tumor was confirmed, and the size of a solid tumor was measured. […]"}, "[3]": {"tested_on": "HL-60 cells (human leukemia cells)", "experiment": "Apoptosis induction in HL-60 cells, propidium iodide (Example 9)", "format": "cell-based", "settings": "20 μM, incubation for 6 hours; control 9.3", "description": "HL-60 cells (human leukemia cells) were suspended in an RPMI-1640 with 10% fetal bovine serum added thereto, and the number of cells was counted. The suspension was adjusted to have a density of 5×10^5 cells/mL. Each 2 mL of the suspension was dispensed into Petri dishes. SBS prepared in Preparation Example 3 was diluted with dimethyl sulfoxide to 2 mM, and each 20 μL of the suspension was added thereto to have a final concentration of 20 μM. Only dimethyl sulfoxide was added to a control. Incubation was performed for 6 hours under the conditions of 37° C. and 5% CO2, and the cells were recovered, and washed with a phosphate buffered saline (PBS) by centrifugation. Four-percent paraformaldehyde was added to the cells, and the cells were allowed to stand at room temperature for 30 minutes to be fixed. After centrifugation, the supernatant was removed, and a PBS was added thereto, and the mixture was centrifuged and washed, and the cells were suspended in 200 μL of a PBS. Five-hundred microliters of 0.05 mg/mL propidium iodide was added thereto, and the mixture was incubated at 4° C. for 10 minutes. Thereafter, the number of whole cells and the number of cells which had undergone apoptosis were measured, and a ratio of induction of apoptosis was calculated according to the following equation (Table 11). […]"}}}
{"smiles": "C=CC(C)(O)CC/C=C(\\C)CCCC(C)(O)CCCC(C)(O)CCCC(C)(O)CCCC(C)(O)CCCC(C)(O)CCCC(C)(O)CCC=C(C)C", "note": "(stereo not shown) [SBS, hypsiziprenol A9]", "values": [{"measurement": "toxicity", "setting": "[1]", "result": "toxicity is not observed"}, {"measurement": "Tumor Volume (Mean ± SD)", "setting": "[2]", "result": "534.5 ± 92.3", "unit": "mm^3"}, {"measurement": "Tumor-Suppressing Activity (%)", "setting": "[2]", "result": 46.2, "unit": "%"}, {"measurement": "Apoptosis-Inducing Ratio (%)", "setting": "[3]", "result": 30.1, "unit": "%"}]}
